# According to US7601746B2 (Shionogi & Co., Ltd., priority 2003, dated 2009):
# Target: T1, human TPO receptor (hTPOR) (Homo sapiens, UniProt P40238)
# T1 construct: expressed in transfected cells; host or cells: BaF-B03 (murine IL-3 dependent cell line)
# T1 sequence (P40238 26-635): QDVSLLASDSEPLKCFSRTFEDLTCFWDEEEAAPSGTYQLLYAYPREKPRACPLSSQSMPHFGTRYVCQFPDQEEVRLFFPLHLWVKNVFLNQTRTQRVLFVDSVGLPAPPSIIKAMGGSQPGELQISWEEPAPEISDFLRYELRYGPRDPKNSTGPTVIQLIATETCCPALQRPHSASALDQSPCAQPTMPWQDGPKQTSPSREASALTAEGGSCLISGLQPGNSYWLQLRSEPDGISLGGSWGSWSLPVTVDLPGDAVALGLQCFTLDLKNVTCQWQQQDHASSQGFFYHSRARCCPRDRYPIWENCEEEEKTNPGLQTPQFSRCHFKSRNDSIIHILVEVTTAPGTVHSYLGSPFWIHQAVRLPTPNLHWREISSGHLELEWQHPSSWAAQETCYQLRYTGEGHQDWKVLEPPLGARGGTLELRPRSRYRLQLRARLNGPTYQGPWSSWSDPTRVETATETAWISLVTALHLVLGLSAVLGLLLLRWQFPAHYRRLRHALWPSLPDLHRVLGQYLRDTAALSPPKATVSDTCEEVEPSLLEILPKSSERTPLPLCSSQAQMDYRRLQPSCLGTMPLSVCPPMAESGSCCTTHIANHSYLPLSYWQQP
# Experiment: Thrombopoietic activity: proliferation of TPO dependent BaF/hTPOR cells (WST-1, absorbance at 450 nm)
# Type: cell-based
# Conditions: 20 h + 4 h WST-1, ED50 = half concentration of the concentration showing the maximum thrombopoietic activity, Table 1
# Description: The TPO dependent BaF/hTPOR cell line which was established by introducing human TPO receptor (hTPOR) into BaF-B03 cells according to Collins et al (J. Cell. Physiol., 137:293-298 (1988)) was used to test the thrombopoietic activity of the present compound. The DNA sequences and encoded peptide sequences for human hTPOR have been described by Vigon et al (Proc. Natl. Acad. Sci. USA, 89:5640-5644 (1992)). TPO dose not have any ability to support proliferation of interlukin-3 dependent parental cell line BaF-B03. BAF/hTPOR cells were maintained in RPMI medium and WEHI-3B conditioned medium as a source of murine interleukin-3 (IL-3). These cells were washed and resuspended in RPMI medium without a source of murine IL-3 and seeded into each well of 96-well microtiter plates at a density of 5×10^4 cells per well in the absence or presence of various concentration of hTPO or the present compound. After incubation at 37° C. for 20 hours in the 5% CO2 incubator, 10% WST-1 reagent (Takara Biomedicals, Japan) was added to each wells and the cells were further incubated for 4 hours. The absorbance at 450 nm was measured. Tables 1 and 2 exemplify the ED50 for tested compounds of the present invention, wherein the ED50 is the half concentration of the concentration showing the maximum thrombopoietic activity.
row,Structure (SMILES),EC50 [nM]
1,"CCCC(OCC)c1cccc(-c2csc(NC(=O)c3cc(F)c(C=C(C)C(=O)O)c(F)c3)n2)c1F (stereo not shown) [Compound B24, 3-(2,6-difluoro-4-{4-[3-(1-ethyloxybutyl)-2-fluorophenyl]thiazol-2-ylcarbamoyl}phenyl)-2-methylacrylic acid]",1.97
2,CCCCCCOC(c1cccc(-c2csc(NC(=O)c3cc(F)c(/C=C(\C)C(=O)O)c(F)c3)n2)c1OC)C1CCCCC1 (stereo not shown) [Compound B519],1.03
3,"CCOC(c1cccc(-c2csc(NC(=O)c3cc(Cl)c(C=C(C)C(=O)O)c(Cl)c3)n2)c1F)C(C)(C)C (stereo not shown) [Compound B56, 3-(2,6-dichloro-4-{4-[3-(1-ethyloxy-2,2-dimethylpropyl)-2-fluorophenyl]thiazol-2-ylcarbamoyl}phenyl)-2-methylacrylic acid]",2.7
4,"CCCCCCCCCCC(OC)c1cccc(-c2csc(NC(=O)c3cc(F)c(/C=C(\C)C(=O)O)c(F)c3)n2)c1OC (stereo not shown) [Compound B355, (E)-3-(2,6-difluoro-4-{4-[2-methyloxy-3-(1-methyloxyundecyl)phenyl]thiazol-2-ylcarbamoyl}phenyl)-2-methylacrylic acid]",3.3
5,"CCCCCCCCCCOCc1cccc(-c2csc(NC(=O)c3cc(Cl)c(C=C(C)C(=O)O)c(Cl)c3)n2)c1F [Compound B76, 3-{2,6-dichloro-4-[4-(3-n-decyloxymethyl-2-fluorophenyl)thiazol-2-ylcarbamoyl]phenyl}-2-methylacrylic acid]",2.98
6,"CCCCCC(OC)c1cccc(-c2csc(NC(=O)c3cc(Cl)c(C=C(C)C(=O)O)c(Cl)c3)n2)c1F (stereo not shown) [Compound B58, 3-(2,6-dichloro-4-{4-[2-fluoro-3-(1-methyloxyhexyl)phenyl]thiazol-2-ylcarbamoyl}phenyl)-2-methylacrylic acid]",1.5
7,"COc1c(CCCOCC(C)(C)C)cccc1-c1csc(NC(=O)c2cc(Cl)c(/C=C(\C)C(=O)O)c(Cl)c2)n1 [Compound B1833, (E)-3-[2,6-dichloro-4-(4-{3-[3-(2,2-dimethylpropyloxy)propyl)-2-methyloxyphenyl]thiazol-2-ylcarbamoyl}phenyl)-2-methylacrylic acid]",19
8,"CCCCCOC(C)c1cccc(-c2csc(NC(=O)c3cc(F)c(C=C(C)C(=O)O)c(F)c3)n2)c1F (stereo not shown) [Compound B31, 3-(2,6-difluoro-4-{4-[2-fluoro-3-(1-n-pentyloxyethyl)phenyl]thiazol-2-ylcarbamoyl}phenyl)-2-methylacrylic acid]",0.85
9,"CCOC(c1cccc(-c2csc(NC(=O)c3cc(F)c(C=C(C)C(=O)O)c(F)c3)n2)c1F)C1CCCCC1 (stereo not shown) [Compound B6, 3-(4-{4-[3-(1-cyclohexyl-1-ethyloxymethyl)-2-fluorophenyl]thiazol-2-ylcarbamoyl}-2,6-difluorophenyl)-2-methylacrylic acid]",2.4
10,"COc1c(CCCOCC(C)C)cccc1-c1csc(NC(=O)c2cc(F)c(/C=C(\C)C(=O)O)c(F)c2)n1 [Compound B1877, (E)-3-(2,6-difluoro-4-{4-[3-(3-isobuyloxypropyl)-2-methyloxyphenyl]thiazol-2-ylcarbamoyl}phenyl)-2-methylacrylic acid]",13
11,"CCCCCCCCCCC(OC)c1cccc(-c2csc(NC(=O)c3cc(Cl)c(/C=C(\C)C(=O)O)c(Cl)c3)n2)c1OC (stereo not shown) [Compound B1060, (E)-3-(2,6-dichloro-4-{4-[2-methyloxy-3-(1-methyloxy-undecyl)phenyl]thiazol-2-ylcarbamoyl}phenyl)-2-methylacrylic acid]",3.9
12,"CCCCOCCCc1cccc(-c2csc(NC(=O)c3cc(F)c(/C=C(\C)C(=O)O)c(F)c3)n2)c1OC [Compound B419, (E)-3-(4-{4-[3-(3-butyloxypropyl)-2-methyloxyphenyl]thiazol-2-ylcarbamoyl}-2,6-difluorophenyl)-2-methylacrylic acid]",14.6
13,"CCCOC(C)c1cccc(-c2csc(NC(=O)c3cc(Cl)c(C=C(C)C(=O)O)c(Cl)c3)n2)c1F (stereo not shown) [Compound B97, 3-(2,6-dichloro-4-{4-[2-fluoro-3-(1-n-propyloxyethyl)phenyl]thiazol-2-ylcarbamoyl)phenyl]-2-methylacrylic acid]",0.94
14,"CCCCCCCCCCC(OC)c1cccc(-c2csc(NC(=O)c3cc(Cl)c(/C=C(\OC)C(=O)O)c(Cl)c3)n2)c1OC (stereo not shown) [Compound B1438, (Z)-3-(2,6-dichloro-4-{4-[2-methyloxy-3-(1-methyloxyundecyl)phenyl]thiazol-2-ylcarbamoyl}phenyl)-2-methyloxyacrylic acid]",6.3
15,"CCCCOC(CC)c1cccc(-c2csc(NC(=O)c3cc(F)c(/C=C(\C)C(=O)O)c(F)c3)n2)c1OC (stereo not shown) [Compound B418, (E)-3-(4-{4-[3-(1-butyloxypropyl)-2-methyloxyphenyl]thiazol-2-ylcarbamoyl}-2,6-difluorophenyl)-2-methylacrylic acid]",6.3
16,"CCCCCOCCCC(OC)c1cccc(-c2csc(NC(=O)c3cc(F)c(C=C(C)C(=O)O)c(F)c3)n2)c1F (stereo not shown) [Compound B53, 3-(2,6-difluoro-4-{4-[2-fluoro-3-(1-methyloxy-4-n-pentyloxybutyl)phenyl]thiazol-2-ylcarbamoyl}phenyl)-2-methylacrylic acid]",1.4
17,"CCCCOC(CCC)c1cccc(-c2csc(NC(=O)c3cc(Cl)c(C=C(C)C(=O)O)c(Cl)c3)n2)c1F (stereo not shown) [Compound B79, 3-(4-{4-[3-(1-n-butyloxybutyl)-2-fluorophenyl]thiazol-2-ylcarbamoyl}-2,6-dichlorophenyl)-2-methylacrylic acid]",0.77

# Further lines, results first:
row,EC50 [nM],Structure (SMILES)
1,11.4,"COc1c(COCCC(C)C)cccc1-c1csc(NC(=O)c2cc(Cl)c(/C=C(\C)C(=O)O)c(Cl)c2)n1 [Compound B2028, (E)-3-(2,6-dichloro-4-{4-[2-methyloxy-3-(3-methylbutyloxymethyl)phenyl]thiazol-2-ylcarbamoyl}phenyl)-2-methylacrylic acid]"
2,8.35,"CCCCCCCOc1cccc(-c2csc(NC(=O)c3cc(F)c(/C=C(\C)C(=O)O)c(F)c3)n2)c1OC [Compound B1998, (E)-3-{2,6-difluoro-4-[4-(3-heptyloxy-2-methyloxyphenyl)thiazol-2-ylcarbamoyl]phenyl}-2-methylacrylic acid]"
3,12.6,"CCCCCCOCCc1cccc(-c2csc(NC(=O)c3cc(Cl)c(/C=C(\C)C(=O)O)c(Cl)c3)n2)c1OC [Compound B1928, (E)-3-(2,6-dichloro-4-{4-[3-(2-hexyloxyethyl)-2-methyloxyphenyl]thiazol-2-ylcarbamoyl)phenyl)-2-methylacrylic acid]"
4,18.1,"CCC(CC)OCc1cccc(-c2csc(NC(=O)c3cc(F)c(/C=C(\C)C(=O)O)c(F)c3)n2)c1OC [Compound B1890, (E)-3-(4-{4-[3-(1-ethylpropyloxymethyl)-2-methyloxyphenyl]thiazol-2-ylcarbamoyl}-2,6-difluorophenyl)-2-methylacrylic acid]"

# Same assay, conditions: 20 h + 4 h WST-1, ED50 = half concentration of the concentration showing the maximum thrombopoietic activity, Table 2
row,EC50 [nM],Structure (SMILES)
1,24.2,"CO/C(=C\c1c(F)cc(C(=O)Nc2nc(-c3cccc(C(CCOC(C)C)OC)c3F)cs2)cc1F)C(=O)O (stereo not shown) [Compound B2012, (Z)-3-(2,6-difluoro-4-{4-[2-fluoro-3-(3-isopropyloxy-1-methyloxypropyl)phenyl]thiazol-2-ylcarbamoyl}phenyl)-2-methyloxyacrylic acid]"
2,22.7,"COc1c(CCOCCCCF)cccc1-c1csc(NC(=O)c2cc(Cl)c(/C=C(\C)C(=O)O)c(Cl)c2)n1 [Compound B2003, (E)-3-[2,6-dichloro-4-(4-{3-[2-(4-fluorobutyloxy)ethyl]-2-methyloxyphenyl}thiazol-2-ylcarbamoyl)phenyl]-2-methylacrylic acid]"
3,20.6,"CCCCCOCCc1cccc(-c2csc(NC(=O)c3cc(F)c(/C=C(\C)C(=O)O)c(F)c3)n2)c1OC [Compound B1924, (E)-3-(2,6-difluoro-4-{4-[2-methyloxy-3-(2-pentyloxyethyl)phenyl]thiazol-2-ylcarbamoyl)phenyl)-2-methylacrylic acid]"
4,23.5,"COc1cccc(-c2csc(NC(=O)c3cc(Cl)c(/C=C(\C)C(=O)O)c(Cl)c3)n2)c1F [Compound B2018, (E)-3-{2,6-dichloro-4-[4-(2-fluoro-3-methyloxyphenyl)thiazol-2-ylcarbamoyl]phenyl}-2-methylacrylic acid]"
